Values after ≈ are worked out from the molar mass of the structure shown.
Tests used:
[1] = Solubility of free base in PEG-300/Cremophor EL/Ethanol vehicles; assay type: physicochemical
Text: Solubility of N-(4-{4-amino-7-[1-(2-hydroxyethyl)-1H-pyrazol-4-yl]thieno[3,2-c]pyridin-3-yl}phenyl)-N′-(3-fluorophenyl)urea Free Base in PEG-300/Cremophor EL/Ethanol Vehicles

[2] = Pharmacokinetics of IV formulation in humans (Phase I, advanced solid tumors); assay type: in vivo; conditions: human, plasma, IV infusion approx. 2 hour
Text: IV formulations of the invention were used in an open-label Phase I human study evaluating the safety and pharmacokinetics of N-(4-{4-amino-7-[1-(2-hydroxyethyl)-1H-pyrazol-4-yl]thieno[3,2-c]pyridin-3-yl}phenyl)-N′-(3-fluorophenyl)urea as monotherapy in subjects with advanced solid tumors, i.e., mixture of polyethylene glycol 300, polyoxyl 35 castor oil, and ethanol in a ratio of 45:45:10% w/w, and N-(4-{4-amino-7-[1-(2-hydroxyethyl)-1H-pyrazol-4-yl]thieno[3,2-c]pyridin-3-yl}phenyl)-N′-(3-fluorophenyl)urea, wherein the N-(4-{4-amino-7-[1-(2-hydroxyethyl)-1H-pyrazol-4-yl]thieno[3,2-c]pyridin-3-yl}phenyl)-N′-(3-fluorophenyl)urea is present in a concentration of about 6 mg/mL.
The number of subjects that entered the studies and completed at least a portion of the studies are noted. Subjects entered the study and were assigned to receive one of the following doses: 8 mg, 16 mg, or 32 mg.
Doses were administered on Day 1 and Day 15 of each 28 day cycle with an approximately 2 hour infusion. On Day 1 and Day 15, plasma samples are collected at time 0 (prior to infusion), 1 h 55 min (just before the end of the infusion), and at 0.5, 1, 2, 4, 6, 8, 10, 24 hours post the end of infusion. The plasma concentrations of N-(4-{4-amino-7-[1-(2-hydroxyethyl)-1H-pyrazol-4-yl]thieno[3,2-c]pyridin-3-yl}phenyl)-N′-(3-fluorophenyl)urea were determined, and the values for the pharmacokinetic parameters were calculated and shown in Table 7.

[3] = Solubility of free base in various media; assay type: physicochemical
Text: Solubility of N-(4-{4-amino-7-[1-(2-hydroxyethyl)-1H-pyrazol-4-yl]thieno[3,2-c]pyridin-3-yl}phenyl)-N′-(3-fluorophenyl)urea Free Base in Various Media

[4] = 8 mg, 8 mg, Study Day 1, mean ± SD, N 4
[5] = 8 mg, 8 mg, Study Day 15, mean ± SD, N 4
[6] = 16 mg, 16 mg, Study Day 15, N 1
[7] = 32 mg, 32 mg, Study Day 1, mean, N 2
[8] = 32 mg, 32 mg, Study Day 15, mean, N 2

solubility ([1]; PEG-300/Cremophor EL/Ethanol 42.5/42.5/15, organic solvent or mixture, PEG-300/Cremophor EL/Ethanol ratio 42.5/42.5/15, 5° C., read-out: Solubility (mg/mL) at 5° C.): 11.9 mg/mL
solubility ([1]; PEG-300/Cremophor EL/Ethanol 42.5/42.5/15, organic solvent or mixture, PEG-300/Cremophor EL/Ethanol ratio 42.5/42.5/15, RT, read-out: Solubility (mg/mL) at RT): 10 mg/mL
solubility ([1]; PEG-300/Cremophor EL/Ethanol 45/45/10, organic solvent or mixture, PEG-300/Cremophor EL/Ethanol ratio 45/45/10, 5° C., read-out: Solubility (mg/mL) at 5° C.): 14.1 mg/mL
solubility ([1]; PEG-300/Cremophor EL/Ethanol 45/45/10, organic solvent or mixture, PEG-300/Cremophor EL/Ethanol ratio 45/45/10, RT, read-out: Solubility (mg/mL) at RT): 11.6 mg/mL
solubility ([1]; PEG-300/Cremophor EL/Ethanol 47.5/47.5/5, organic solvent or mixture, PEG-300/Cremophor EL/Ethanol ratio 47.5/47.5/5, 5° C., read-out: Solubility (mg/mL) at 5° C.): 16.4 mg/mL
solubility ([1]; PEG-300/Cremophor EL/Ethanol 47.5/47.5/5, organic solvent or mixture, PEG-300/Cremophor EL/Ethanol ratio 47.5/47.5/5, RT, read-out: Solubility (mg/mL) at RT): 13 mg/mL
half-life ([2]; 8 mg, 8 mg, Study Day 1, harmonic mean ± pseudo SD, N 4): 10.7 ± 8.3 h
AUC(0-inf) [2, 4]: 2960 ± 1540 ng·h/mL
Cmax [2, 4]: 235 ± 82.1 ng/mL
Tmax [2, 4]: 1.9 h
half-life ([2]; 8 mg, 8 mg, Study Day 15, harmonic mean ± pseudo SD, N 4): 14.1 ± 7.4 h
AUC(0-inf) [2, 5]: 2940 ± 1630 ng·h/mL
Cmax [2, 5]: 246 ± 107 ng/mL
Tmax [2, 5]: 1.9 h
AUC(0-inf) ([2]; 16 mg, 16 mg, Study Day 1, N 1): 2350 ng·h/mL
Cmax ([2]; 16 mg, 16 mg, Study Day 1, N 1): 366 ng/mL
Tmax ([2]; 16 mg, 16 mg, Study Day 1, N 1): 2.5 h
half-life ([2]; 16 mg, 16 mg, Study Day 1, N 1): 9.8 h
AUC(0-inf) [2, 6]: 3690 ng·h/mL
Cmax [2, 6]: 736 ng/mL
Tmax [2, 6]: 1.9 h
half-life [2, 6]: 12.6 h
half-life ([2]; 32 mg, 32 mg, Study Day 1, harmonic mean, N 2): 8.9 h
AUC(0-inf) [2, 7]: 8730 ng·h/mL
Cmax [2, 7]: 1310 ng/mL
Tmax [2, 7]: 1.9 h
half-life ([2]; 32 mg, 32 mg, Study Day 15, harmonic mean, N 2): 11.3 h
AUC(0-inf) [2, 8]: 8620 ng·h/mL
Cmax [2, 8]: 1370 ng/mL
Tmax [2, 8]: 2.2 h
solubility ([3]; 10% Cremophor EL in water, aqueous with cosolvent or surfactant or cyclodextrin, read-out: Solubility): 106 µg/mL (≈ 217 µM)
solubility ([3]; 10% Polysorbate 80 in water, aqueous with cosolvent or surfactant or cyclodextrin, read-out: Solubility): 146 µg/mL (≈ 299 µM)
solubility ([3]; 10% Solutol HS in water, aqueous with cosolvent or surfactant or cyclodextrin, read-out: Solubility): 152 µg/mL (≈ 311 µM)
solubility ([3]; Cremophor EL, organic solvent or mixture, Cremphor EL, read-out: Solubility): 7100 µg/mL (≈ 14500 µM)
solubility ([3]; DMA, organic solvent or mixture, read-out: Solubility): 35000 to 50000 µg/mL (≈ 71600 to 102000 µM)
solubility ([3]; Ethanol, organic solvent or mixture, read-out: Solubility): 130 µg/mL (≈ 266 µM)
solubility ([3]; PEG 300, organic solvent or mixture, read-out: Solubility): 20000 µg/mL (≈ 40900 µM)
solubility ([3]; PEG 400, organic solvent or mixture, read-out: Solubility): 20900 µg/mL (≈ 42800 µM)
solubility ([3]; Polysorbate 80, organic solvent or mixture, read-out: Solubility): 2500 µg/mL (≈ 5120 µM)
solubility ([3]; Propylene Glycol, organic solvent or mixture, read-out: Solubility): 1200 µg/mL (≈ 2460 µM)
solubility ([3]; Water (across physiological pH range), read-out: Solubility): < 0.03 µg/mL
solubility ([3]; water, pH 7.4, aqueous buffer, read-out: solubility in water): < 0.03 µg/mL
SMILES: Nc1ncc(-c2cnn(CCO)c2)c2scc(-c3ccc(NC(=O)Nc4cccc(F)c4)cc3)c12 [API, N-(4-{4-amino-7-[1-(2-hydroxyethyl)-1H-pyrazol-4-yl]thieno[3,2-c]pyridin-3-yl}phenyl)-N′-(3-fluorophenyl)urea]

From patent US20150126545A1, “COMPOSITIONS CONTAINING KINASE INHIBITORS” (AbbVie Inc., priority 2011, published 2015)
